In brackets after ≈: the same amount, converted by molar mass. Where two headings read alike, the source gives them in different places. Marks after values point to notes of the source that are not given here. Peptide text beside a SMILES is read from it.
Key:
P. aeruginosa [1] = test: MBC against clinical isolates; format: cell-based; settings: clinical isolate
E. coli [2] = settings: 18 h
P. aeruginosa [3] = settings: 18 h
[4] = tested on: Methicillin-resistant S. aureus; settings: clinical isolate
F. solani = format: cell-based; settings: 24 h
Protocol: The MICs of peptides were determined against the fungi C. albicans (American Type Culture Collection, ATCC) and F. solani (ATCC) by the broth microdilution method. […] F. solani, were cultured on sabouraud dextrose agar plates in incubator at 37° C. To collect conidia following incubation, conidia of F. solani species were harvested and standardized to 1×10^8 spores/ml before performing the experiments. Sabouraud dextrose broth (90 μL) was added to the wells of culture plates. […] The plates were incubated at 37° C. and examined macroscopically after 24 h for the growth of F. solani. Appropriate control wells without any treatment were included in the study. Peptide were considered to be active if the wells appeared clear without any visible growth of F. solani, and the results were expressed as MIC. The assay was performed in four replicates for each concentration.

P. aeruginosa [5] = settings: 18 h; remark: listed apart in the source
C. albicans [6] = settings: 42 h
S. epidermidis [7] = settings: 18 h
E. coli and S. aureus = test: FE-SEM imaging of treated bacteria (Example 1); format: cell-based, Escherichia coli, Staphylococcus aureus; settings: 2 h treatment
Protocol: E. coli suspension at ˜3×10^8 CFU ml^−1 (100 μL) was incubated with an equal volume of broth containing 20% (by volume) of water and a lethal dose (250 mg L^−1) of a representative peptide in a 96 well-plate for 2 h. Eight replicates of each condition was pooled into a microfuge tube, pelleted down at 5000×g for 5 min, and rinsed twice with PBS. The samples were then fixed with 4% formaldehyde at room temperature for 15 min, followed by rinsing with DI water. Dehydration of the cells was performed using a series of graded ethanol solutions (35, 50, 75, 90, 95 and 100%). The samples were allowed to air-dry, mounted on carbon table, and sputter coated with platinum for imaging with a FE-SEM setup (JEOL JSM-7400F, Japan).

S. aureus [8] = settings: 18 h
rabbit red blood cells = format: cell-based; settings: red cells of rabbit, 1 h
[9] = tested on: 5 microorganisms tested (S. epidermidis, S. aureus, E. coli, P. aeruginosa, C. albicans); test: Mean MIC over the panel and selectivity index (Example 2)
C. neoformans = test: MBC against clinical isolates; format: cell-based; settings: clinical isolate
S. aureus [10] = settings: 18 h; remark: listed apart in the source
[11] = tested on: Vancomycin-resistant Enterococci; settings: clinical isolate
C. albicans keratitis = test: Contact lens-associated C. albicans keratitis mouse model
S. aureus biofilms [12] = format: cell-based, Staphylococcus aureus; settings: 24 h; for killing of S. aureus residing in biofilms: MIC, 4×MIC, 8×MIC
Protocol: The wells were then rinsed once with 100 μL of PBS to remove planktonic cells and loosely attached cells, and replenished with 100 μL of fresh broth. Biofilm formation was allowed to proceed up to 6-8 days with daily rinsing and media changes before use in experiments. […] Subsequently, the solutions were removed and 120 μL of activated XTT solution was added into each well. […] Relative cell viability was expressed as [(A490-[…])sample/(A490-[…])control]×100%.

[13] = Acute in vivo toxicity, intravenous tail vein injection; settings: mouse, mice
Protocol: For the β-sheet forming peptides to qualify as suitable therapeutic candidates, their antimicrobial activities should be considered in the light of their selectivity for microbial cell membranes so as to minimize toxicities towards mammalian cells. […] The selectivity indices (SIs) of the peptides were further evaluated as a comparison of the safety and efficacies of the different peptide sequences (Table 2). SIs of the various peptides were calculated as the ratio of the HC10 value (defined as the lowest peptide concentration that induces 10% or more haemolysis) to the GM (geometric mean MICs of the 5 microbial strains tested). […] The acute in vivo toxicity testing was performed via intravenous tail vein injection of solutions containing representative peptides of n=2 [(IRIK)2-NH2 (SEQ ID NO: 17)] and n=3 [(IRVK)3-NH2 (SEQ ID NO: 22)] repeat units in mice.

S. aureus biofilms [14] = test: Biofilm biomass, crystal violet staining; format: cell-based, Staphylococcus aureus; settings: MIC, 4×MIC, 8×MIC, 24 h
Protocol: The biomass of the biofilms was estimated by a crystal violet staining assay. Briefly, the formed biofilms were first treated with the peptides for 24 h as described above. After aspirating the culture medium, the biofilms were washed once with PBS, fixed with methanol for 15 min at room temperature and stained with 100 μL of 0.1% (weight by volume) crystal violet for 10 min. The excess crystal violet dye was removed by rinsing the wells with DI water for five times. The dye that is associated with the biofilm was extracted using 100 μL of 33% glacial acetic acid per well and quantified by measuring the absorbance at a wavelength of 570 nm using a microplate reader (TECAN, Switzerland). The relative amount of biomass remaining after peptide treatment was expressed as a percentage of the control treated with broth containing 10% (by volume) of water. Data represent mean±standard deviations of four replicates per concentration.

S. epidermidis [15] = settings: 18 h; remark: listed apart in the source
E. coli [16] = settings: 18 h; remark: listed apart in the source
trypsin and proteinase K = format: in vitro ADME
Protocol: One of the major factors limiting the clinical utility of AMPs lies in their instability to rapid degradation by proteases which are present abundantly in biological fluids and/or secreted by microorganisms. In order to evaluate the proteolytic stability of the designed β-sheet forming peptides, the D- and L-isoforms of the n=2 peptide sequence (IK8-all D or IK8-all L, respectively) were treated with the broad spectrum serine proteases, trypsin and proteinase K, for 6 h and evaluated their antimicrobial activities against S. aureus, E. coli and P. aeruginosa. […] The structural integrity of synthetic peptides following treatment with both proteases was also evaluated using MALDI-TOF mass spectroscopy. […] The cleavage sites of both enzymes for the IK8-all L peptide are illustrated in FIG. 19a with the mass spectra peaks assigned to the major fragments.

[17] = tested on: 5 microorganisms tested (S. epidermidis, S. aureus, E. coli, P. aeruginosa, C. albicans); test: Mean MIC over the panel and selectivity index (Example 1); format: cell-based
Protocol: Red blood cells suspension incubated with PBS was used as negative control.

C. albicans [18] = tested on: C. albicans
[19] = tested on: LPS-stimulated NO production in NR8383 rat macrophage cell line; test: Endotoxin neutralization assay (Griess nitrite); format: cell-based; settings: 125 mg L^−1 peptide, 100 ng mL^−1 LPS, 18 h
Protocol: Untreated cells and cells that were stimulated with LPS alone served as the […] controls, respectively. The amount of NO produced was estimated by quantifying the concentration of the stable NO metabolite nitrite in the isolated supernatant fractions using the Griess reagent (1% sulphanilamide, 0.1% N-1-napthylethylenediamine dihydrochloride, 5% phosphoric acid) according to the manufacturer's protocol. The absorbance was measured at 540 nm and nitrite concentrations were determined using a standard reference curve prepared from known concentrations of NaNO2 solutions.

[20] = tested on: clinically isolated Mycobacterium tuberculosis
S. aureus [21] = format: cell-based, Staphylococcus aureus; settings: passage 20
[22] = topical eye drops, peptides 3000 mg/L, amphotericin B 1000 mg/L

| Structure (SMILES) | MBC P. aeruginosa (P. aeruginosa [1]) [µg/mL] | MIC E. coli (E. coli [2]) [µg/mL] | MIC P aeruginosa (P. aeruginosa [3]) [µg/mL] | MBC Methicillin-resistant S. aureus [4] [µg/mL] | MIC P. aeruginosa (P. aeruginosa [5]) [µg/mL] | MIC C. albicans (C. albicans [6]) [µg/mL] | MIC S. epidermidis (S. epidermidis [7]) [µg/mL] | surface morphology under FE-SEM (E. coli and S. aureus) | MIC S. aureus (S. aureus [8]) [µg/mL] | HC10, haemolysis concentration 10%: lowest peptide concentration that induces ≧10% haemolysis (rabbit red blood cells) | GM, geometric mean of MIC values for the 5 microorganisms tested [9] [µg/mL] | MBC C. neoformans (C. neoformans) [µg/mL] | MIC S. aureus (S. aureus [10]) [µg/mL] | MBC Vancomycin-resistant Enterococci [11] [µg/mL] | killing of S. aureus residing in biofilms (S. aureus biofilms [12]) | LD50 [13] [mg/kg] | amount of biomass in the treated biofilms (S. aureus biofilms [14]) | MIC S. epidermidis (S. epidermidis [15]) [µg/mL] | MIC E. coli (E. coli [16]) [µg/mL] | GM, geometric mean of MIC values for the 5 microorganisms tested [17] [µg/mL] | also measured |
| --- | --- | --- | --- | --- | --- | --- | --- | --- | --- | --- | --- | --- | --- | --- | --- | --- | --- | --- | --- | --- | --- |
| CC[C@H](C)[C@H](N)C(=O)N[C@@H](CCCNC(=N)N)C(=O)N[C@H](C(=O)N[C@@H](CCCCN)C(=O)N[C@H](C(=O)N[C@@H](CCCNC(=N)N)C(=O)N[C@H](C(=O)N[C@@H](CCCCN)C(N)=O)[C@@H](C)CC)[C@@H](C)CC)[C@@H](C)CC [(IRIK)2-NH2] (H-IRIKIRIK-NH2; N-terminus assumed) | 7.8 (≈ 7.51 µM) | 15.6 (≈ 15 µM) | 31.3 (≈ 30.1 µM) | 31.3 (≈ 30.1 µM) | 31.3 (≈ 30.1 µM) | 3.9 (≈ 3.76 µM) | 3.9 (≈ 3.76 µM) | rough and uneven | 62.5 (≈ 60.2 µM) | 2000 mg/L | 23.4 | 7.8 (≈ 7.51 µM) | 62.5 (≈ 60.2 µM) | 15.6 (≈ 15 µM) | dose-dependent killing | 35.2 | reduced in a dose-dependent manner | 3.9 (≈ 3.76 µM) | 15.6 (≈ 15 µM) | 23.4 | MIC F. solani (F. solani): 31.3 µg/mL (≈ 30.1 µM); MBC A. baumanni (A. baumanni): 125 µg/mL (≈ 120 µM); fungal cells eradicated from the biofilms compared to the untreated control group (C. albicans keratitis; C. albicans counts in mice cornea, agar plating): ~90%; depth of hyphal invasion into the cornea, PAS histology (C. albicans keratitis; [22]): reduced the maximal depth of hyphal invasion; resolution of the keratitis infection (eye appearance) (C. albicans keratitis; [22]): significant resolution of the keratitis infection; clinical scores of mice corneas (slit lamp) (C. albicans keratitis; topical eye drops, peptides 3000 mg/L, amphotericin B 1000 mg/L, P<0.01): significantly lower than that in the control group; cell viability of S. aureus in biofilms (S. aureus biofilms [12]; Staphylococcus aureus, 4 ×MIC): less than 10%; antimicrobial activity after protease treatment (trypsin and proteinase K): complete loss in bacterial inhibitory activities; structural integrity after protease treatment, MALDI-TOF MS (trypsin and proteinase K): degradation of the intact peptide; MIC C. albicans (C. albicans [18]): 3.9 µg/mL (≈ 3.76 µM) |
| CC[C@H](C)[C@H](N)C(=O)N[C@@H](CCCNC(=N)N)C(=O)N[C@H](C(=O)N[C@@H](CCCCN)C(=O)N[C@H](C(=O)N[C@@H](CCCNC(=N)N)C(=O)N[C@H](C(=O)N[C@@H](CCCCN)C(=O)N[C@H](C(=O)N[C@@H](CCCNC(=N)N)C(=O)N[C@H](C(=O)N[C@@H](CCCCN)C(N)=O)C(C)C)[C@@H](C)CC)C(C)C)[C@@H](C)CC)C(C)C [(IRVK)3-NH2] (H-IRVKIRVKIRVK-NH2; N-terminus assumed) | 15.6 (≈ 10.4 µM) | 15.6 (≈ 10.4 µM) | 62.5 (≈ 41.5 µM) | 15.6 (≈ 10.4 µM) | 62.5 (≈ 41.5 µM) | 125 (≈ 82.9 µM) | 2.0 (≈ 1.33 µM) | rough and uneven | 31.3 (≈ 20.8 µM) | >125^e) mg L^−1 | 47.3 | 15.6 (≈ 10.4 µM) | 31.3 (≈ 20.8 µM) | 7.8 (≈ 5.18 µM) | dose-dependent killing | 35.2 | reduced in a dose-dependent manner | 2.0 (≈ 1.33 µM) | 15.6 (≈ 10.4 µM) | 47.3 | MBC A. baumanni (A. baumanni; clinical isolate, multidrug resistant): 15.6 µg/mL (≈ 10.4 µM); nitrite concentration, LPS-stimulated NO production [19]: reduced to the control level; MIC M. tuberculosis ([20]; strain number 1140): 15.6 µg/mL (≈ 10.4 µM); MIC M. tuberculosis ([20]; strain number 1146): >31.3 µg/mL; MIC C. albicans (C. albicans [18]): 125 µg/mL (≈ 82.9 µM) |
| CC1(C)S[C@@H]2[C@H](NC(=O)Cc3ccccc3)C(=O)N2[C@H]1C(=O)O [penicillin G, reference compound] |  |  |  |  |  |  |  |  |  |  |  |  |  |  |  |  |  |  |  |  | MICn/MIC0, fold increase in MIC (S. aureus [21]): 32 |

Source: patent US9221875B2, “Amphiphilic peptides for treatment of keratitis” (Agency for Science, Technology and Research, priority 2013, dated 2015)
